This test concerns Calf thymus DNA. Put plainly: Ratio of binding constant of S-enantiomer and R-enantiomer towards sonicated calf thymus DNA. In kind it is nucleic-acid assay. To be noted: Bos taurus.
Take `Cc1cnc(OCC(N)C(C)C)nc1-c1cccs1` (configuration not stated): the Ratio worked out at 1.6.

In the case of `CC(C)C(N)COc1nc(-c2cccs2)cc(-c2cccs2)n1` (configuration not stated), the Ratio worked out at 2.2.

In the case of `NCCOc1nc(-c2cccs2)cc(-c2cccs2)n1`, the Ratio was found to be 2.7.

With `CC(N)COc1nc(-c2cccs2)cc(-c2cccs2)n1` (configuration not stated), the Ratio came to 1.2.

Take `CCC(N)COc1nc(-c2cccs2)cc(-c2cccs2)n1` (configuration not stated): the Ratio came to 1.4.

Take `CCC(N)COc1nc(-c2cccs2)c(C)c(-c2cccs2)n1` (configuration not stated): the Ratio is 1.6.

`Cc1c(-c2cccs2)nc(OCCN)nc1-c1cccs1`: the Ratio is 2.2.

In the case of `Cc1cnc(OCC2CCCN2)nc1-c1cccs1` (configuration not stated), the Ratio came out at 1.4.

`Cc1c(-c2cccs2)nc(OCC(N)C(C)C)nc1-c1cccs1` (configuration not stated): the Ratio amounted to 1.5.

Consider `Cc1c(-c2cccs2)nc(OCC2CCCN2)nc1-c1cccs1` (configuration not stated), for which the Ratio amounted to 1.8.

Take `Cc1c(-c2cccs2)nc(OCC(C)N)nc1-c1cccs1` (configuration not stated): the Ratio worked out at 1.5.

For `c1csc(-c2cc(-c3cccs3)nc(OCC3CCCN3)n2)c1` (configuration not stated), the Ratio came to 2.4.

(Values after ChEMBL document CHEMBL1145265, “Chiral discrimination in binding of enantiomers of 2-(aminoalkoxy)-substituted 4-(2-thienyl)pyrimidines and 4,6-bis(2-thienyl)pyrimidines with duplex DNA” (Bioorg Med Chem Lett, 2005).)
